Experimental data from ChEMBL document CHEMBL1671858, “Coprevalence of plasmid-mediated quinolone resistance determinants QepA, Qnr, and AAC(6')-Ib-cr among 16S rRNA methylase RmtB-producing Escherichia coli isolates from pigs” (2008).

How the values were obtained:
Type in all cases: functional
[1] = system: Escherichia coli; assay: Antimicrobial activity against Escherichia coli isolate GZ3 transconjugant harboring 16S rRNA methylase RmtB and qepA by agar dilution method relative to recipient strain
[2] = system: Escherichia coli; assay: Antimicrobial activity against Escherichia coli isolate GZ4 transconjugant harboring 16S rRNA methylase RmtB and qepA by agar dilution method relative to recipient strain
[3] = system: Escherichia coli; assay: Antimicrobial activity against Escherichia coli isolate GZ5 transconjugant harboring 16S rRNA methylase RmtB and qepA by agar dilution method relative to recipient strain
[4] = system: Escherichia coli; assay: Antimicrobial activity against Escherichia coli isolate GZ6 transconjugant harboring 16S rRNA methylase RmtB and qepA by agar dilution method relative to recipient strain
[5] = system: Escherichia coli; assay: Antimicrobial activity against Escherichia coli isolate GZ8 transconjugant harboring 16S rRNA methylase RmtB and qepA by agar dilution method relative to recipient strain
[6] = system: Escherichia coli; assay: Antimicrobial activity against Escherichia coli isolate GZ9 transconjugant harboring 16S rRNA methylase RmtB and qepA by agar dilution method relative to recipient strain
[7] = system: Escherichia coli; assay: Antimicrobial activity against Escherichia coli isolate GZ11 transconjugant harboring 16S rRNA methylase RmtB and qepA by agar dilution method relative to recipient strain
[8] = system: Escherichia coli; assay: Antimicrobial activity against Escherichia coli isolate GZ12 transconjugant harboring 16S rRNA methylase RmtB and qepA by agar dilution method relative to recipient strain
[9] = system: Escherichia coli; assay: Antimicrobial activity against Escherichia coli isolate GZ13 transconjugant harboring 16S rRNA methylase RmtB and qepA by agar dilution method relative to recipient strain
[10] = system: Escherichia coli; assay: Antimicrobial activity against Escherichia coli isolate GZ14 transconjugant harboring 16S rRNA methylase RmtB and qepA by agar dilution method relative to recipient strain
[11] = system: Escherichia coli; assay: Antimicrobial activity against Escherichia coli isolate GZ15 transconjugant harboring 16S rRNA methylase RmtB and qepA by agar dilution method relative to recipient strain
[12] = system: Escherichia coli; assay: Antimicrobial activity against Escherichia coli isolate GZ16 transconjugant harboring 16S rRNA methylase RmtB and qepA by agar dilution method relative to recipient strain
[13] = system: Escherichia coli; assay: Antimicrobial activity against Escherichia coli isolate CQ15 transconjugant harboring 16S rRNA methylase RmtB and qepA by agar dilution method relative to recipient strain
[14] = system: Escherichia coli; assay: Antimicrobial activity against Escherichia coli isolate CQ18 transconjugant harboring 16S rRNA methylase RmtB and qepA by agar dilution method relative to recipient strain
[15] = system: Escherichia coli; assay: Antimicrobial activity against Escherichia coli isolate CQ2 transconjugant harboring 16S rRNA methylase RmtB and qepA by agar dilution method relative to recipient strain
[16] = system: Escherichia coli; assay: Antimicrobial activity against Escherichia coli isolate CQ5 transconjugant harboring 16S rRNA methylase RmtB and qepA by agar dilution method relative to recipient strain
[17] = system: Escherichia coli; assay: Antimicrobial activity against Escherichia coli isolate CQ4 transconjugant harboring 16S rRNA methylase RmtB and qepA by agar dilution method relative to recipient strain
[18] = system: Escherichia coli; assay: Antimicrobial activity against Escherichia coli isolate CQ20 transconjugant harboring 16S rRNA methylase RmtB and qepA by agar dilution method relative to recipient strain
[19] = system: Escherichia coli; assay: Antimicrobial activity against Escherichia coli isolate CQ26 transconjugant harboring 16S rRNA methylase RmtB and qepA by agar dilution method relative to recipient strain
[20] = system: Escherichia coli; assay: Antimicrobial activity against Escherichia coli isolate CQ10 transconjugant harboring 16S rRNA methylase RmtB and qepA by agar dilution method relative to recipient strain
[21] = system: Escherichia coli; assay: Antimicrobial activity against Escherichia coli isolate CQ14 transconjugant harboring 16S rRNA methylase RmtB and qepA by agar dilution method relative to recipient strain
[22] = system: Escherichia coli; assay: Antimicrobial activity against Escherichia coli isolate GZ7 transconjugant harboring 16S rRNA methylase RmtB and qepA and qnrS1 by agar dilution method relative to recipient strain
[23] = system: Escherichia coli; assay: Antimicrobial activity against Escherichia coli isolate GZ1 transconjugant harboring 16S rRNA methylase RmtB and qnrS1 by agar dilution method relative to recipient strain
[24] = system: Escherichia coli; assay: Antimicrobial activity against Escherichia coli isolate GZ2 transconjugant harboring 16S rRNA methylase RmtB and qnrS1 by agar dilution method relative to recipient strain
[25] = system: Escherichia coli; assay: Antimicrobial activity against Escherichia coli isolate CQ22 transconjugant harboring 16S rRNA methylase RmtB and qnrS1 by agar dilution method relative to recipient strain
[26] = system: Escherichia coli; assay: Antimicrobial activity against Escherichia coli isolate CQ13 transconjugant harboring 16S rRNA methylase RmtB and qnrS1 by agar dilution method relative to recipient strain
[27] = system: Escherichia coli; assay: Antimicrobial activity against Escherichia coli isolate CQ6 transconjugant harboring 16S rRNA methylase RmtB and qepA, qnrS2, aac(6')-Ib-cr gene by agar dilution method relative to recipient strain
[28] = system: Escherichia coli; assay: Antimicrobial activity against Escherichia coli isolate CQ7 transconjugant harboring 16S rRNA methylase RmtB and qepA, qnrS2, aac(6')-Ib-cr gene by agar dilution method relative to recipient strain
[29] = system: Escherichia coli; assay: Antimicrobial activity against Escherichia coli isolate CQ12 transconjugant harboring 16S rRNA methylase RmtB and qepA, qnrS2, aac(6')-Ib-cr gene by agar dilution method relative to recipient strain
[30] = system: Escherichia coli; assay: Antimicrobial activity against Escherichia coli isolate CQ16 transconjugant harboring 16S rRNA methylase RmtB and qepA, qnrS2, aac(6')-Ib-cr gene by agar dilution method relative to recipient strain
[31] = system: Escherichia coli; assay: Antimicrobial activity against Escherichia coli isolate GZ10 transconjugant harboring 16S rRNA methylase RmtB and qepA, aac(6')-Ib-cr gene by agar dilution method relative to recipient strain
[32] = system: Escherichia coli; assay: Antimicrobial activity against Escherichia coli isolate CQ19 transconjugant harboring 16S rRNA methylase RmtB and qepA, aac(6')-Ib-cr gene by agar dilution method relative to recipient strain
[33] = system: Escherichia coli; assay: Antimicrobial activity against Escherichia coli isolate CQ1 transconjugant harboring 16S rRNA methylase RmtB and qnrB6 by agar dilution method relative to recipient strain

For C[C@H]1COc2c(N3CCN(C)CC3)c(F)cc3c(=O)c(C(=O)O)cn1c23.C[C@H]1COc2c(N3CCN(C)CC3)c(F)cc3c(=O)c(C(=O)O)cn1c23.O [LEVOFLOXACIN], the “fold change (FC)” value [1] was 2, the “fold change (FC)” value [2] was 2 and the “fold change (FC)” value [3] was 2. For the same compound, the “fold change (FC)” value [4] was 4, the “fold change (FC)” value [5] was 1 and the “fold change (FC)” value [6] was 2. For the same compound, the “fold change (FC)” value [7] was 2, the “fold change (FC)” value [8] was 8 and the “fold change (FC)” value [9] was 2. For the same compound, the “fold change (FC)” value [10] was 4, the “fold change (FC)” value [11] was 2 and the “fold change (FC)” value [12] was 4. For the same compound, the “fold change (FC)” value [13] was 1, the “fold change (FC)” value [14] was 1 and the “fold change (FC)” value [15] was 4. The “fold change (FC)” value [16] was 1, the “fold change (FC)” value [17] was 1 and the “fold change (FC)” value [18] was 2. For the same compound, the “fold change (FC)” value [19] was 1, the “fold change (FC)” value [20] was 2 and the “fold change (FC)” value [21] was 2. The “fold change (FC)” value [22] was 1, the “fold change (FC)” value [23] was 4 and the “fold change (FC)” value [24] was 2. The “fold change (FC)” value [25] was 1, the “fold change (FC)” value [26] was 4 and the “fold change (FC)” value [27] was 4. The “fold change (FC)” value [28] was 1, the “fold change (FC)” value [29] was 2 and the “fold change (FC)” value [30] was 2. The “fold change (FC)” value [31] was 4, the “fold change (FC)” value [32] was 1 and the “fold change (FC)” value [33] was 1.
CCn1cc(C(=O)O)c(=O)c2ccc(C)nc21 [NALIDIXIC ACID] was tested, and the “fold change (FC)” value [1] was 8, the “fold change (FC)” value [2] was 2 and the “fold change (FC)” value [3] was 1. The “fold change (FC)” value [4] was 1, the “fold change (FC)” value [5] was 4 and the “fold change (FC)” value [6] was 4. The “fold change (FC)” value [7] was 2, the “fold change (FC)” value [8] was 1 and the “fold change (FC)” value [9] was 4. The “fold change (FC)” value [10] was 1, the “fold change (FC)” value [11] was 1 and the “fold change (FC)” value [12] was 2. For the same compound, the “fold change (FC)” value [13] was 1, the “fold change (FC)” value [14] was 1 and the “fold change (FC)” value [15] was 1. The “fold change (FC)” value [16] was 1, the “fold change (FC)” value [17] was 2 and the “fold change (FC)” value [18] was 1. The “fold change (FC)” value [19] was 1, the “fold change (FC)” value [20] was 1 and the “fold change (FC)” value [21] was 1. The “fold change (FC)” value [22] was 16, the “fold change (FC)” value [23] was 4 and the “fold change (FC)” value [24] was 4. The “fold change (FC)” value [25] was 1, the “fold change (FC)” value [26] was 4 and the “fold change (FC)” value [27] was 16. For the same compound, the “fold change (FC)” value [28] was 1, the “fold change (FC)” value [29] was 1 and the “fold change (FC)” value [30] was 2. For the same compound, the “fold change (FC)” value [31] was 16, the “fold change (FC)” value [32] was 1 and the “fold change (FC)” value [33] was 2.
In the case of CCn1cc(C(=O)O)c(=O)c2cc(F)c(N3CCNCC3)cc21 [NORFLOXACIN], the “fold change (FC)” value [1] was 16, the “fold change (FC)” value [2] was 4 and the “fold change (FC)” value [3] was 16. The “fold change (FC)” value [4] was 8, the “fold change (FC)” value [5] was 8 and the “fold change (FC)” value [6] was 16. For the same compound, the “fold change (FC)” value [7] was 4, the “fold change (FC)” value [8] was 16 and the “fold change (FC)” value [9] was 8. For the same compound, the “fold change (FC)” value [10] was 16, the “fold change (FC)” value [11] was 4 and the “fold change (FC)” value [12] was 8. The “fold change (FC)” value [13] was 8, the “fold change (FC)” value [14] was 8 and the “fold change (FC)” value [15] was 16. The “fold change (FC)” value [16] was 16, the “fold change (FC)” value [17] was 2 and the “fold change (FC)” value [18] was 4. For the same compound, the “fold change (FC)” value [19] was 4, the “fold change (FC)” value [20] was 32 and the “fold change (FC)” value [21] was 32. The “fold change (FC)” value [22] was 16, the “fold change (FC)” value [23] was 16 and the “fold change (FC)” value [24] was 2. The “fold change (FC)” value [25] was 2, the “fold change (FC)” value [26] was 4 and the “fold change (FC)” value [27] was 16. The “fold change (FC)” value [28] was 16, the “fold change (FC)” value [29] was 16 and the “fold change (FC)” value [30] was 16. The “fold change (FC)” value [31] was 16, the “fold change (FC)” value [32] was 16 and the “fold change (FC)” value [33] was 2.
